Data on three compounds can be found in patent publication US20210380951A1, “RNA-BASED METHODS TO LAUNCH HEPATITIS B VIRUS INFECTION” (priority 2018, published 2021).

Experiment [1] concerns WT HBV. The experiment can be described thus: RNA launch method: inhibition of HBV replication from transfected pgRNA, read out as percent HBsAg (CLIA). It counts as cell-based. Conditions: HBsAg with vs without inhibitor, FIG. 4. On the procedure:
The inhibitory effect of three reverse-transcriptase inhibitors, Entecavir (ETV), Tenofovir Disoproxil Fumarate (TDF), and Lamivudine (LAM) on WT HBV was compared. The inhibitory effect of LAM on the HBV viral variant M204V was also measured. The inhibition by the reverse-transcriptase inhibitors was determined as percent HBsAg by comparing the level of HBsAg in the presence and absence of the inhibitors.
HepG2-NTCP or Huh-7.5-NTCP cells were seeded at 2.5×10^5 cells per well in six-well plates two days before transfection. The media was changed to 2 ml DMEM containing 1.5% FBS and 0.1 mM NEAA just before transfection. […]
HBeAg and HBsAg were quantified using a chemiluminescence immunoassay (CLIA) kit (Autobio Diagnostics Co., Zhengzhou, China) according to the manufacturer's instructions. To quantify HBV DNA, total DNA was extracted from infected or RNA-transfected cells using QIAamp DNA Blood Mini Kit (Qiagen, cat. #51106) and HBV DNA was detected by qPCR as previously described (Michalidis et al., Sci Rep. 2017, November 30:7(1):16616). For each experiment, cells were transfected with T7-RFP as a negative control and DNA quantified from these cells was used to define the background. […]

In experiment [2] the test system is chronic HBV. The note with it: chronically infected patients, injectable; cited from earlier work.

Structures can show the parent of a compound that is named as a salt.

`C=C1[C@H](CO)[C@@H](O)C[C@@H]1n1cnc2c(=O)[nH]c(N)nc21` [Entecavir]: the “inhibitory effect on WT HBV (HBV replication, percent HBsAg)” value in experiment [1] was “inhibited HBV replication in a dose-dependent manner”.

In the case of `CC(C)OC(=O)OCOP(=O)(CO[C@H](C)Cn1cnc2c(N)ncnc21)OCOC(=O)OC(C)C` [Tenofovir Disoproxil Fumarate], the “inhibitory effect on WT HBV (HBV replication, percent HBsAg)” value in experiment [1] is “inhibited HBV replication in a dose-dependent manner”.

As for interferon alpha [IFNα], in experiment [2], the “success rate of curing chronic HBV” value was approximately 10%.
